Reference: article PMC8619920, “New Polyesterified Ursane Derivatives from Leaves of Maesa membranacea and Their Cytotoxic Activity” (Molecules, 2021)

Key:
[1] = test system: HTB140 human melanoma cells; assay: Cytotoxicity, LDH assay, HTB140 cells; assay type: cell-based; settings: Homo sapiens; 24 h treatment, 5–100 μg/mL
Description: (§1) Cytotoxic activity was tested on human cancer and normal cells, grouped in three panels, namely: prostate, skin and gastrointestinal. The prostate panel consisted of prostate cancer cell lines Du145 (ATCC HTB-81) and PC3 (ATCC CRL-1435), and prostate epithelial cells PNT-2 (ECACC 95012613). Melanoma cell lines A375 (ATCC CRL-1619) and HTB140 (ATCC Hs 294T) together with skin keratinocytes HaCaT (obtained as a kind gift of prof. Marta Michalik, Department of Cell Biology, Jagiellonian University, Kraków, Poland) were included into the skin panel. The gastrointestinal panel of cells comprised colon cancer cell lines Caco-2 (ATCC HTB-37) and HT29 (ATCC HTB-38). Du145 cells were grown in Modified Eagle’s Medium with low (1.0 g/L) glucose concentration, HT29, PC3 and PNT-2 cells in Dulbecco’s Modified Eagle’s Media: F12 HAM Nutrient Mixture, Caco-2 in Modified Eagle’s Medium with NEAA (no-essential amino acids) while melanoma cells and keratinocytes were maintained in Modified Eagle’s Medium with high (4.5 g/L) glucose concentration. The culture media (all supplied by Sigma-Aldrich Co.; St. Louis, MO, USA) contained antibiotics and 10% fetal bovine serum (FBS). All cultures were maintained at 37 °C, in a humidified, 5% CO2 containing, atmosphere.
(§2) The examined triterpenes were diluted in the culture media from freshly made stock solutions in MeOH (10 mg/mL) to the working concentrations (from 0 to 100 μg/mL).
(§3) Cell viability was determined as it was described previously. Cells suspended in the nutrient medium were transferred into 96-well microtiter plates (density 1.5 × 10^4 per well), and preincubated for 24 h (37 °C, 5% CO2). Then, the culture medium was replaced with the medium containing different concentrations of 1 or 2 (1–100 μg/mL). After 24 h of incubation, viability of the cells was determined using colorimetric lactate dehydrogenase (LDH) assay, in comparison to the controls to which corresponding aliquots of MeOH diluted with culture media were added. Cells grown in the medium without the tested compounds were used as control I (negative) and the positive control (control II) was obtained by incubation of the cells in the medium containing 1% Triton X-100. LDH released from the damaged cells into the cell culture medium was quantified by measuring the absorbance at 490 nm using Synergy II Biotek (BioTek Instruments, Winooski, VT, USA) microplate reader. Cytotoxicities of the examined compounds were calculated as follows: [(absorbance of the tested sample − absorbance of control I)/(absorbance of control II − absorbance of control I)] × 100. Results were means of three independent measurements (± SD). Doxorubicin (Ebewe Pharma GmbH., Unterach, Austria) was used as a reference cytostatic drug. The IC50 values were determined by plotting the percentage viability of the cells versus concentration and the adequate calculations made using AAT Bioquest website program (https://www.aatbio.com/tools/ic50-calculator, accessed on 29 October 2021).

[2] = Cytotoxicity, LDH assay, Caco-2 cells; assay type: cell-based, human; settings: human, Caco-2, 24 h, mean ± SD of three, read-out: Cell viability Caco-2
Description: as §1, §2, §3

[3] = test system: Caco-2 human colon adenocarcinoma cells; assay: Cytotoxicity, LDH assay, Caco-2 cells; assay type: cell-based; settings: 24 h treatment; for IC50: Homo sapiens, Caco-2, 24 h
Description: as §1, §2, §3

Molecule `CC(=O)OC1CC2(C)C(C(OC(C)=O)CC3(C)C2C(O)C=C2C4C(C)C(C)(O)CC(OC(C)=O)C4(C)CCC23C)C(C)(C)C1O` (stereo not drawn) [Compound 2, 2α,6β,22α-triacetoxy-urs-12-ene-3α,11α,20β-triol] has an IC50 [1] of over 100 µg/mL, a viability at 24 h, 5 μg/mL [2] of 94.7 ± 1.42% and a viability at 24 h, 10 μg/mL [2] of 88.4 ± 0.92%. For the same molecule, the viability at 24 h, 20 μg/mL [2] was 82 ± 1.69%, the viability at 24 h, 30 μg/mL [2] was 74.7 ± 1.19% and the viability at 24 h, 40 μg/mL [2] was 65.8 ± 1.25%. The viability at 24 h, 50 μg/mL [2] was 61.1 ± 2.37%, the viability at 24 h, 100 μg/mL [2] was 49.6 ± 1.49% and the IC50 ([3]; 5–100 μg/mL) was over 50 µg/mL.

For `CCC(C)C(=O)OC1C=C2C3C(C)C(C)(O)CC(OC(C)=O)C3(C)CCC2(C)C2(C)CC(OC(C)=O)C3C(C)(C)C(O)C(OC(C)=O)CC3(C)C12` (stereo not drawn) [Compound 1, 2α,6β,22α-triacetoxy-11α-(2-methylbutyryloxy)-urs-12-ene-3α,20β-diol], the IC50 [1] was over 50 µg/mL, the viability at 24 h, 5 μg/mL [2] was 95.55 ± 0.74% and the viability at 24 h, 10 μg/mL [2] was 88.7 ± 0.93%. For the same molecule, the viability at 24 h, 20 μg/mL [2] was 78.5 ± 1.94%, the viability at 24 h, 30 μg/mL [2] was 65.9 ± 1.21% and the viability at 24 h, 40 μg/mL [2] was 51.1 ± 2.4%. The viability at 24 h, 50 μg/mL [2] was 35.8 ± 1.32%, the viability at 24 h, 100 μg/mL [2] was 22.2 ± 1.53% and the “IC50 Caco-2” value ([3]; 5–100 μg/mL) was 35.65 µg/mL. The IC50 ([3]; 5–100 μg/mL) was 35.7 µg/mL and the IC50 ([3]; value in brackets, footnote d) was 49.8 µM.
